According to patent US5444042A, “Method of treatment of neurodegeneration with calpain inhibitors” (Cortex Pharmaceuticals, priority 1994, dated 1995):
Where a SMILES comes first, the peptide text is derived from it. The star is where a group is joined. Boc = CC(C)(C)OC(=O)*; CH2Cl = ClC*

Key:
Calpain I [1] = target: T1, Calpain I (Homo sapiens, UniProt P07384); assay: Calpain I KI (Table 1B(ii)); assay type: biochemical; conditions: Table 1B(ii)
T1 sequence (P07384 1-714): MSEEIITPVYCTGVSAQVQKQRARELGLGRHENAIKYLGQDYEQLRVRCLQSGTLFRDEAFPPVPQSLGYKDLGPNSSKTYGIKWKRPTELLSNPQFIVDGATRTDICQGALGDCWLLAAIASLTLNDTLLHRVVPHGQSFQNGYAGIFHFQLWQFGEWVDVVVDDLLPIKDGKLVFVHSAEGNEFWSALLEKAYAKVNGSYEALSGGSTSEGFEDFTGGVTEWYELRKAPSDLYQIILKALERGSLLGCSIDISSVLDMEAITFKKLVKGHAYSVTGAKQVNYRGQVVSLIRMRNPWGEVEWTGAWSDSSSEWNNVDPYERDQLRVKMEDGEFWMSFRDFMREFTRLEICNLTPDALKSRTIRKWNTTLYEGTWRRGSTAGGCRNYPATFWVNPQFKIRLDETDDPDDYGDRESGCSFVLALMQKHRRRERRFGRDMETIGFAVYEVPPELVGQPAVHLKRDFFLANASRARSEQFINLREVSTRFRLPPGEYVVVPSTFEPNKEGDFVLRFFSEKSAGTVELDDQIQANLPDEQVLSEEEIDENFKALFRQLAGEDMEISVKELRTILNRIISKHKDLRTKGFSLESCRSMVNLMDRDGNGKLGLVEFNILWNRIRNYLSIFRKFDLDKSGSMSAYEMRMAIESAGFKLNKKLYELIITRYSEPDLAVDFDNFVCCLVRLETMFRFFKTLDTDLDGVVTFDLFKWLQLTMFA
T1 sequence (P04632 1-268 partner): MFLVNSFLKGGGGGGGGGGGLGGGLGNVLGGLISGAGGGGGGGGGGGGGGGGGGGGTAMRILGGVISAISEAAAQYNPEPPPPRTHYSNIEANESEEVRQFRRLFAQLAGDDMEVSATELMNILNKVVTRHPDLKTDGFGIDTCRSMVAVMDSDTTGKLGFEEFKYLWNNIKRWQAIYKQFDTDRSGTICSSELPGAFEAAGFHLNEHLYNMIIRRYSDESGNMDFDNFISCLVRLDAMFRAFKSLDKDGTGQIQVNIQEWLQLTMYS
Description: We tested the ability of an additional group of Peptide Keto-Compounds to inhibit several proteases in order to evaluate their specificity for Calpain.

Papain = target: T2, Papain (Carica papaya, UniProt P00784); assay: Kapp/[I] progress curve method, Papain (Table 1C); assay type: biochemical; conditions: benzoyl-arg-4-nitroanilide
T2 sequence (P00784 134-345): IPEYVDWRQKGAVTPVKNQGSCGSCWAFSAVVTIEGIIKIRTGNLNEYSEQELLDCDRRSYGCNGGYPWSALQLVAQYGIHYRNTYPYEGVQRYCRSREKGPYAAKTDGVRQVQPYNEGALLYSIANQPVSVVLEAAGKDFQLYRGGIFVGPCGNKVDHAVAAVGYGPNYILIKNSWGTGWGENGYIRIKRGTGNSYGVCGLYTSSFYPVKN
Experimental: (§1) The Halo-Ketone Peptides, like the substituted isocoumarins, are irreversible inhibitors of Calpain. We determined the Kapp /[I] values for various members of this class of compounds against Calpains I and II. For comparison, we also determined these values against the additional thiol proteases Papain and Cathepsin B for at least one Halo-Ketone Peptide.
(§2) We assayed Calpain I and II using Suc-leu-tyr-amidomethylcoumarin. Papain was assayed using benzoyl-arg-4-nitroanilide, and Cathepsin B (bovine) was assayed using CBZ-lys-4-nitrophenyl ester. We followed the progress curve method of Tian and Tsou, Biochemistry, 21:1028-1032 (1982), the disclosure of which is hereby incorporated by reference, to derive kinetic data. Briefly, this method makes use of the equation: [formula] where [P.infin. ] represents the concentration of product formed at a time approaching infinity, A is the Kapp in the presence of substrate (S), K is the Michaelis constant and [Y] is the concentration of the inhibitor. Since [S] and [Y] are known and V and K can be determined, Kapp can be readily determined.

Calpain II = assay: Kapp/[I] progress curve method, Calpain II (Table 1C); assay type: biochemical; parameters: unit not given here; conditions: Rabbit Calpain II, Suc-leu-tyr-amidomethylcoumarin
Experimental: as §1, §2

Cathepsin B = Cathepsin B (Bos taurus, UniProt P07688); assay: Kapp/[I] progress curve method, Cathepsin B (Table 1C); assay type: biochemical, bovine; conditions: CBZ-lys-4-nitrophenyl ester
Experimental: as §1, §2

Calpain I [2] = target: T1, Calpain I; assay: Calpain I 14C-methylated casein proteolysis (Table 1A); assay type: biochemical
[3] = test system: gerbils subjected to transient ischemia; assay: Transient ischemia in gerbils, neuronal loss in CA1 (Example 3A); assay type: in vivo, gerbil; conditions: leupeptin 20 mg/ml intracerebroventricular perfusion 3 days before 10 min ischemia; 14 days later
Experimental: A small cannula was implanted in the right lateral ventricle of adult gerbils, and secured to the skull with dental cement. An Alzet micro-osmotic pump was attached to the cannula for intracerebroventricular perfusion. The pump was filled with either saline alone (control) or leupeptin (20 mg/ml in saline). After three days perfusion with either the control solution or with the leupeptin solution, transient ischemia was induced by bilaterally clamping the carotid arteries for a period of ten minutes. […] Fourteen days later, the animals were sacrificed by Nembutal overdose and transcardial perfusion of a 10% solution of paraformaldehyde in PBS. Coronal sections of the brain were stained with cresyl violet and were examined for the extent of neuronal loss.

[4] = test system: Calpain activity (spectrin BDP's); assay: Transient ischemia in gerbils, spectrin BDP's in CA1 (Example 3B); assay type: in vivo, gerbil; conditions: CA1 region, 30 minutes after clamping
Experimental: Implantation surgeries and clamping of the carotid arteries were performed as above with a control-ischemia group (n=4) and a leupeptin-ischemia group (n=5). A third group of animals (n=4) received implantation with pumping of saline, but was not subjected to ischemia. Animals were sacrificed by decapitation 30 minutes after clamping of the arteries. The brains were rapidly removed and placed in cold homogenization buffer (0.32M sucrose, 10 mM Tris-HCl, 2 mM EDTA, 1 mM EGTA, 100 μM leupeptin and 1 μg/ml of the Halo-Ketone Compound, tos-phe-CH2 Cl (TPCK)). The CA1 region of the hippocampus was then dissected. The samples from both control and leupeptin treated animals were then prepared for SDS-PAGE and immunoblotting with labeled anti-spectrin antibody, as described above in connection with in vitro uses of the Calpain Inhibitors. […] These BDP's co-migrated with BDP's observed after in vitro proteolysis of spectrin with Calpain.

hippocampal slices = assay: Hippocampal slice EPSP recovery from severe hypoxia (FIG. 5); assay type: cell-based, rat; conditions: one hour incubation
Experimental: These studies were performed in a manner similar to that of Example 7B, except using a hypoxic environment in place of the anoxia of Example 7B. […] The control slices experienced little or no recovery.

CCCC(NC(=O)[C@H](CC(C)C)NC(=O)OCc1ccccc1)C(=O)C(=O)OCC (mixture of isomers) [Z-Leu-Nva-COOEt, Z-Leu-DL-Nva-COOEt]
Ki (Calpain I [1]): 1.4 µM

CC(C)CC(NC(=O)CNC(=O)OC(C)(C)C)C(=O)NC(Cc1ccccc1)C(=O)CCl (stereo not drawn) [Boc-Gly-Leu-Phe-CH2 Cl] (Boc-Gly-Leu-Phe-CH2Cl; configuration not given here)
Kapp/[I] P (Papain): 540000
Kapp/[I] CII (Calpain II): 902000
Kapp/[I] CB (Cathepsin B): 290000

N=C(N)SCCCOc1oc(=O)c2ccccc2c1Cl [CiTprOIC, 4-chloro-3-(3-isothiureidopropoxy)isocoumarin]
IC50 (Calpain I [2]): 100 µM

CC(=O)N[C@@H](CC(C)C)C(=O)N[C@@H](CC(C)C)C(=O)N[C@H](C=O)CCCNC(=N)N [Leupeptin, Ac-Leu-Leu-Arg-H, reference compound]
loss of neurons in CA1 field [3]: 15%
spectrin BDP's relative to control ischemia treated gerbils [4]: approximately 25%

N=C(N)SCCCOc1oc(=O)c2cc(N)ccc2c1Cl [NH2 -CiTPrOIC (ACITIC), 7-amino-4-chloro-3-(3-isothiureidopropoxy)isocoumarin]
IC50 (Calpain I [2]): 10 µM

CCOC(=O)C(=O)C(Cc1ccccc1)NC(=O)C(CC(C)C)NC(=O)OCc1ccccc1 (stereo not drawn) [Z-Leu-Phe-COOEt]
percent recovery of EPSP from severe hypoxia (FIG. 5) (hippocampal slices): partial recovery
